Source: patent publication US11432549B2, “Carbamoyl triazolinone based herbicide combinations and method of use” (Arysta LifeScience Corporation, priority 2009, dated 2022)

Assays:
Format in all cases: in vivo
Digitaria ciliaris = assay: Ex 1 pot test, visual % damage
[1] = test system: Euphorbia heterophylla (EPHHL); assay: Ex 4 pre-emergence, visual % damage
Description: DINAMIC® (amicarbazone) in combination of various herbicides listed in Table 4-1 were tested for herbicidal activity.
The herbicidal effect was observed by comparing the extent of Euphorbia heterophylla (EPHHL) treated with the compounds against that occurring in similar non-treated control. Herbicidal effect was visually assessed and recorded at 14, 23, 36, 49, 65 and 77 days after treatment (DAT). Damage by the herbicidal compositions was evaluated with reference to a scale of 0% to 100% in comparison with untreated control. 0% means no damage and 100% means complete destruction of the plants.
The theoretical herbicidal effect index were calculated based on Colby and the values were indicated in bracket ( ) in Table 4-2. Both of the herbicidal mixtures (amicarbazone+Karmex) and (amicarbazone+Sencor) exert a greater herbicidal action than expected according to Colby on the basis of the observed effects of the individual components when used alone. […] The underlined values in the table indicate that the observed weed killing is greater than calculated from the Colby formula and therefore indicates a synergistic weed killing effect or activity.

Poa annua = assay: Ex 5/7 greenhouse spray, bleaching/injury ratings
Description: Containers were watered as needed based on species and water usage. The greenhouse was heated to keep temperatures above 50° F. (10° C.) and ventilated as needed to keep temperatures below 100° F. (38° C.). Typical daytime temperatures in the greenhouse were 80-90° F. (27-32° C.) and nighttime temperatures were between 50-60° F. (10-16° C.). The soil employed was Promix BX potting soil. Overall moisture conditions were normal and the closest weather station was on-site. Conditions and equipment employed in this Example are tabulated below in Tables 5-1 and 5-2.
All containers were moved outdoors from the greenhouse and arranged in blocks by treatment for the herbicide applications. A single spray application was applied to each block containing four repetitions of each species for each treatment. Plants were then immediately returned to the greenhouse and irrigated with approximately ¼″ water 1-3 hrs after treatment with a hose end sprayer. Only the Poa plants were trimmed with scissors two days prior to treatment at a height of approximately 3 inches.
Transplanted tillering Kentucky Bluegrass was 5 to 6 months old, transplanted Poa annua was 5 to 6 months old. Tall fescue was seeded into the crabgrass pots. St. Augustine plants (Floratam and Saphire) were shipped from Port St. Lucie, Fla. Only two replicates of Saphire St. Augustine grass were used due to plant availability.
Referring to FIGS. 2A-B, 3A-C, 4A-C, and 5A-D, all ratings of injury or bleaching are based on a scale from 1 to 9. […] Any bleaching measurement 4 and above was considered unacceptable for desirable turf species. In injury measurements, 1 indicates no injury while 9 indicates a dead plant. Any injury measurement 4 and above was considered unacceptable for desirable turf species). Density correlates with percent cover where 1 indicates no grass while 9 indicates a full pot.
Replications employed include 4, Untreated treatments: 1, Design: Randomized Complete Block, Treatment units: US standard, Treated plot size Width: 4 feet, Treated plot size Length: 4 feet, Application volume: 50 gal/ac, Mix size: 0.5562 liters, Mix overage: 100%, Format definitions: G-All7.DEF, G-All7.FRM.
In evaluating synergism, the data from Example 5 above were converted to % of control. This was done based on the data provided on a 1-9 scale detailed in Example 5. Expected values were computed from the % of control data by the formula for expected control=[…], where A is the % of control value for herbicide A alone and B is the % of control value for herbicide B alone.

[2] = rating 1, 0.022 lbs ai/A (0.5 oz/A)
[3] = rating 1, 0.13 lbs ai/A (3 oz/A)
[4] = rating 2, 0.022 lbs ai/A (0.5 oz/A)
[5] = rating 2, 0.13 lbs ai/A (3 oz/A)
[6] = rating 3, 0.022 lbs ai/A (0.5 oz/A)
[7] = rating 3, 0.13 lbs ai/A (3 oz/A)
[8] = rating 4, 0.022 lbs ai/A (0.5 oz/A)
[9] = rating 4, 0.13 lbs ai/A (3 oz/A)

`CC(C)c1nn(C(=O)NC(C)(C)C)c(=O)n1N` [Amicarbazone, 4-amino-5-isopropyl-2-(tert-butyl-aminocarbonyl)-2,4-dihydro-3H-1,2,4-triazol-3-one] was tested, and the herbicide effect (Digitaria ciliaris; 50 g/ha and 100 g/ha, one-leaf stage) was “small”, the percentage control (Digitaria ciliaris; single application 50 g/ha, 5 DAT) was 24% and the percentage control (Digitaria ciliaris; single application 50 g/ha, 8 DAT) was 38%. The percentage control (Digitaria ciliaris; single application 50 g/ha, 14 DAT) was 34%, the percentage control (Digitaria ciliaris; single application 50 g/ha, 21 DAT) was 34% and the percentage control (Digitaria ciliaris; single application 50 g/ha, 28 DAT) was 26%. For the same compound, the percentage control (Digitaria ciliaris; single application 100 g/ha, 5 DAT) was 70%, the percentage control (Digitaria ciliaris; single application 100 g/ha, 8 DAT) was 78% and the percentage control (Digitaria ciliaris; single application 100 g/ha, 14 DAT) was 82%. For the same compound, the percentage control (Digitaria ciliaris; single application 100 g/ha, 21 DAT) was 74%, the percentage control (Digitaria ciliaris; single application 100 g/ha, 28 DAT) was 66% and the percentage control (Digitaria ciliaris; single application 200 g/ha, 5 DAT) was 92%. The percentage control (Digitaria ciliaris; single application 200 g/ha, 8 DAT) was 96%, the percentage control (Digitaria ciliaris; single application 200 g/ha, 14 DAT) was 98% and the percentage control (Digitaria ciliaris; single application 200 g/ha, 21 DAT) was 86%. It also gave a percentage control (Digitaria ciliaris; single application 200 g/ha, 28 DAT) of 86%, a percentage control ([1]; 14 DAT, kg/ha or L/ha: Amicarbazone 1.00, Gesapax 3.00, Karmex 3.00, Provence 0.15, Sencor 2.00, alone or Amicarbazone + partner) of 96% and a percentage control ([1]; 14 DAT, kg/ha or L/ha: Amicarbazone 1.50, Gesapax 5.00, Karmex 5.00, Provence 0.20, Sencor 3.50, alone) of 98%. For the same compound, the percentage control ([1]; 23 DAT, kg/ha or L/ha: Amicarbazone 1.00, Gesapax 3.00, Karmex 3.00, Provence 0.15, Sencor 2.00, alone or Amicarbazone + partner) was 96%, the percentage control ([1]; 23 DAT, kg/ha or L/ha: Amicarbazone 1.50, Gesapax 5.00, Karmex 5.00, Provence 0.20, Sencor 3.50, alone) was 98% and the percentage control ([1]; 36 DAT, kg/ha or L/ha: Amicarbazone 1.00, Gesapax 3.00, Karmex 3.00, Provence 0.15, Sencor 2.00, alone or Amicarbazone + partner) was 96%. It also gave a percentage control ([1]; 36 DAT, kg/ha or L/ha: Amicarbazone 1.50, Gesapax 5.00, Karmex 5.00, Provence 0.20, Sencor 3.50, alone) of 96%, a percentage control ([1]; 49 DAT, kg/ha or L/ha: Amicarbazone 1.00, Gesapax 3.00, Karmex 3.00, Provence 0.15, Sencor 2.00, alone or Amicarbazone + partner) of 79% and a percentage control ([1]; 49 DAT, kg/ha or L/ha: Amicarbazone 1.50, Gesapax 5.00, Karmex 5.00, Provence 0.20, Sencor 3.50, alone) of 96%. It also gave a percentage control ([1]; 65 DAT, kg/ha or L/ha: Amicarbazone 1.00, Gesapax 3.00, Karmex 3.00, Provence 0.15, Sencor 2.00, alone or Amicarbazone + partner) of 79%, a percentage control ([1]; 65 DAT, kg/ha or L/ha: Amicarbazone 1.50, Gesapax 5.00, Karmex 5.00, Provence 0.20, Sencor 3.50, alone) of 96% and a percentage control ([1]; 77 DAT, kg/ha or L/ha: Amicarbazone 1.00, Gesapax 3.00, Karmex 3.00, Provence 0.15, Sencor 2.00, alone or Amicarbazone + partner) of 75%. The percentage control ([1]; 77 DAT, kg/ha or L/ha: Amicarbazone 1.50, Gesapax 5.00, Karmex 5.00, Provence 0.20, Sencor 3.50, alone) was 90%, the “control of annual bluegrass” value (Poa annua; high rate, by itself) was “reasonable control” and the Annual bluegrass bleaching (Poa annua; [2]) was 100 % of control. The Annual bluegrass injury (Poa annua; [2]) was 104 % of control, the Annual bluegrass bleaching (Poa annua; [3]) was 100 % of control and the Annual bluegrass injury (Poa annua; [3]) was 71 % of control. For the same compound, the Annual bluegrass bleaching (Poa annua; [4]) was 100 % of control, the Annual bluegrass injury (Poa annua; [4]) was 104 % of control and the Annual bluegrass bleaching (Poa annua; [5]) was 100 % of control. For the same compound, the Annual bluegrass injury (Poa annua; [5]) was 61 % of control, the Annual bluegrass bleaching (Poa annua; [6]) was 100 % of control and the Annual bluegrass injury (Poa annua; [6]) was 108 % of control. For the same compound, the Annual bluegrass bleaching (Poa annua; [7]) was 91 % of control, the Annual bluegrass injury (Poa annua; [7]) was 67 % of control and the Annual bluegrass bleaching (Poa annua; rating 4/2, 0.022 lbs ai/A (0.5 oz/A)) was 100 % of control. For the same compound, the Annual bluegrass bleaching (Poa annua; rating 4/2, 0.13 lbs ai/A (3 oz/A)) was 88 % of control, the Annual bluegrass bleaching (Poa annua; [8]) was 107 % of control and the Annual bluegrass injury (Poa annua; [8]) was 96 % of control. The Annual bluegrass bleaching (Poa annua; [9]) was 94 % of control, the Annual bluegrass injury (Poa annua; [9]) was 53 % of control and the Annual bluegrass injury (Poa annua; rating 5, 0.022 lbs ai/A (0.5 oz/A)) was 90 % of control. For the same compound, the Annual bluegrass injury (Poa annua; rating 5, 0.13 lbs ai/A (3 oz/A)) was 52 % of control, the Annual bluegrass injury (Poa annua; rating 6, 0.022 lbs ai/A (0.5 oz/A)) was 85 % of control and the Annual bluegrass injury (Poa annua; rating 6, 0.13 lbs ai/A (3 oz/A)) was 31 % of control. For the same compound, the Annual bluegrass injury (Poa annua; rating 7, 0.022 lbs ai/A (0.5 oz/A)) was 85 % of control and the Annual bluegrass injury (Poa annua; rating 7, 0.13 lbs ai/A (3 oz/A)) was 24 % of control.
